Measurements as given in BindingDB's records for doi:10.1021/bi00152a045 (Mcmaster University, 1992).

Target: Protein kinase C alpha type (Rattus norvegicus, UniProt P05696)
Experiment: Mixed Micelle Assay
Settings: pH 7.5; 30 °C
Text: The triton X-100 assay previously described by Bell and co-workers were used to measure enzyme activity.

IC50 [µM]	SMILES
258	CC(C)CCCC(C)C1CCC2C3CC=C4CC(C(=O)NCCN(C)C)CCC4(C)C3CCC12C (stereo not drawn) [Amphiphile, III]
12	CC(C)CCCC(C)C1CCC2C3CC=C4CC(C(=O)NCC[N+](C)(C)C)CCC4(C)C3CCC12C (stereo not drawn) [Amphiphile, IV]
59	CC(C)CCCC(N)C1CCN2C3OC=C4CC(OC(=O)CCC(=O)NCC[N+](C)(C)C)CCC4(C)C3CCC12C (stereo not drawn) [Amphiphile, IX]
191	CC(C)CCCC(N)C1CCN2C3OC=C4CC(OC(=O)CCC(=O)NCCN(C)C)CCC4(C)C3CCC12C (stereo not drawn) [Amphiphile, VIII]
246	CC(C)CCCC(C)C1CCC2C3CC=C4CC(C(=O)NCCN)CCC4(C)C3CCC12C (stereo not drawn) [Amphiphile, VII]
11	CC(C)CCCC(C)C1CCC2C3CC=C4CC(C(=O)OC(CN(C)C)C[N+](C)(C)C)CCC4(C)C3CCC12C (stereo not drawn) [Amphiphile, VI]
643	CC(C)CCCC(C)C1CCC2C3CC=C4CC(C(=O)OC(CN(C)C)CN(C)C)CCC4(C)C3CCC12C (stereo not drawn) [Amphiphile, V]
20	CC(C)CCCC(N)C1CCN2C3OC=C4CC(OC(=O)CCC(=O)OCCN(C)CC[N+](C)(C)C)CCC4(C)C3CCC12C (stereo not drawn) [Amphiphile, XIII]
164	CC(C)CCCC(N)C1CCN2C3OC=C4CC(OC(=O)CCC(=O)OCCN(C)CCN(C)C)CCC4(C)C3CCC12C (stereo not drawn) [Amphiphile, XII]
15	CC(C)CCCC(N)C1CCN2C3OC=C4CC(OC(=O)CCC(=O)OC(CN(C)C)C[N+](C)(C)C)CCC4(C)C3CCC12C (stereo not drawn) [Amphiphile, XI]
40	CCCCCCCCCCCCCCCCCCCCCCCC(=O)OC(CN(C)C)C[N+](C)(C)C (stereo not drawn) [Amphiphile, XVII]
26	CCCCCCCCCCCCCCCCCCCCCC(=O)OC(CN(C)C)C[N+](C)(C)C (stereo not drawn) [Amphiphile, XVI]
408	CC(C)CCCC(N)C1CCN2C3OC=C4CC(OC(=O)CCC(=O)OC(CN(C)C)CN(C)C)CCC4(C)C3CCC12C (stereo not drawn) [Amphiphile, X]
